From patent US20040259192A1, “Method for cleaving the human growth hormone gh” (priority 2001, published 2004)
“Also recorded” adds a separate entry of the source. Blank lines part the entries; values can stand above or below the compound they belong to. Square brackets hold non-standard residues; d marks the D form. Ends that are not written are not given here. * marks the point of attachment. Sta = CC(C)C[C@H](N)[C@@H](O)CC(=O)O; Isovaleryl = CC(C)CC(=O)*

How the values were obtained:
[1] = molecular target: MMP-3 (Homo sapiens, UniProt P08254); experiment: activation or inhibition of MMP-3 by substances; type: biochemical; parameters: inhibition (MMP-3): dose or concentration left out as unconfirmed; details: for inhibition at 10 µM: with 10 μM
[2] = test system: MMP-3; experiment: cleavage of human GH by MMP-3, SDS-PAGE, with or without protease inhibitors; type: biochemical; details: for influence on GH cleavage by MMP-3: inhibitor added in place of phenanthroline, concentration not given
Method: (§1) Human GH (SIGMA S-4776) was incubated with the recombinant catalytic domain of MMP-3 or with the activated full-length enzyme MMP-3 (EC 3.4.24.17) at a molar ratio of 50:1 at 37° C. overnight. 100 mM Tris-HCl, pH 7.5/100 mM NaCl/10 mM CaCl2/0.05% (w/v) Brij 35 served as incubation buffer. The following samples served as a control:
1. GH incubated with the same volume of buffer instead of MMP-3,
2. GH incubated with MMP-3 in the presence of 1 mM 1,10-phenanthroline (SIGMA P-9375) as MMP inhibitor.
(§2) The reaction is stopped by the addition of ¼ volume of 5 times reducing Laemmli buffer and incubation at 90° C. for 4 minutes. The samples were subsequently separated on a 15% SDS polyacrylamide gel according to a generally known method. The proteins were prepared by means of coomassie or silver staining.

[3] = molecular target: MMP-9 (Homo sapiens, UniProt P14780); experiment: cleavage of human GH by MMP-9, SDS-PAGE; type: biochemical; details: activated MMP-9; long incubation periods, different enzyme concentrations
Method: It was tested in an informing preliminary test whether MMP-9 can cleave human GH in vitro. As shown in Example 2, GH was in this case incubated with activated MMP-9 and subjected to PAA gel electrophoresis. […]
as §1, §2
(§3) In accordance with the method shown in Example 2, other human MMPs were also tested for checking the specificity of the GH cleavage by MMP-3.

[4] = molecular target: MMP-8 (Homo sapiens, UniProt P22894); experiment: cleavage of human GH by MMP-8, SDS-PAGE; type: biochemical; details: method of Example 2
Method: as §1, §2, §3

[5] = molecular target: MMP-14 (Homo sapiens, UniProt P50281); experiment: cleavage of human GH by MMP-14, SDS-PAGE; type: biochemical; details: method of Example 2
Method: as §1, §2, §3

[6] = molecular target: T1, MMP-2 (Homo sapiens, UniProt P08253); experiment: cleavage of human GH by MMP-2; type: biochemical
T1 sequence (P08253 110-660): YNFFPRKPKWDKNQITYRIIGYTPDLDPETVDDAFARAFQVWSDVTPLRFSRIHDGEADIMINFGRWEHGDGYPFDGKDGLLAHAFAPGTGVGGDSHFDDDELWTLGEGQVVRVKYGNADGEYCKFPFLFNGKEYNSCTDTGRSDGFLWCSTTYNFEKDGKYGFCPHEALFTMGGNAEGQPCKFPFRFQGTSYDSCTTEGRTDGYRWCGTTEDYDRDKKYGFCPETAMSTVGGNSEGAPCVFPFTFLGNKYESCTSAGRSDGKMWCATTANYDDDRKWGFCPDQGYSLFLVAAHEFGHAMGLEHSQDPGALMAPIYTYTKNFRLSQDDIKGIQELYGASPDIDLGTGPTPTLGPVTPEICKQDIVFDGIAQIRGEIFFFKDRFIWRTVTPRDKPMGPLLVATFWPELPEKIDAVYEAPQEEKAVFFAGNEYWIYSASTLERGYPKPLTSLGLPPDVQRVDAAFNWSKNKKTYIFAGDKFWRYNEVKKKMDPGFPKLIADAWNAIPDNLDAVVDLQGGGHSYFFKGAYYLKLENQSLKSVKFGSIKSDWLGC

[7] = test system: Human microvascular endothelial cells (HUVEC); experiment: proliferation of human microvascular endothelial cells (cell number, Coulter Counter); type: cell-based; details: 24 hours
Method: Human microvascular endothelial cells (HUVEC) of the 3rd passage were kindly provided by Dr. Jurgen Salvetter (Leipzig University). These cells were prepared according to the information furnished by Norman and Karasek (49). HUVEC were used up to the 9th passage for the proliferation experiments. HUVEC were tested up to confluence in RPMI 1640 medium with additions of 10% (v/v) tested endotoxin-deficient fetal calf serum (Biochrom), 2 mM L-glutamine (GIBCO), 25 μg/ml endothelial cell growth supplement (SIGMA), 50 μg/ml streptomycin plus 50 units/ml penicillin (Life Technologies). The confluent cells were harvested by means of 5% trypsin/0.2% EDTA (BIOCHROM) at 37° C. for 5 minutes. A suspension of 10,000 cells in RPMI 1640 medium plus 2% (v/v) tested endotoxin-deficient fetal calf serum (Biochrom), 2 mM L-glutamine (GIBCO), 50 μg/ml streptomycin plus 50 units/ml penicillin (Life Technologies) were transferred to 24-well plates coated with 30 μg/ml type I collagen from calf skin (IBFB). […] The cells were washed with the same medium after 24 hours of incubation and removed using trypsin/EDTA and the cell number was determined in a Coulter Counter. […]

MMP-3 (Homo sapiens, UniProt P08254), sequence (P08254 100-477): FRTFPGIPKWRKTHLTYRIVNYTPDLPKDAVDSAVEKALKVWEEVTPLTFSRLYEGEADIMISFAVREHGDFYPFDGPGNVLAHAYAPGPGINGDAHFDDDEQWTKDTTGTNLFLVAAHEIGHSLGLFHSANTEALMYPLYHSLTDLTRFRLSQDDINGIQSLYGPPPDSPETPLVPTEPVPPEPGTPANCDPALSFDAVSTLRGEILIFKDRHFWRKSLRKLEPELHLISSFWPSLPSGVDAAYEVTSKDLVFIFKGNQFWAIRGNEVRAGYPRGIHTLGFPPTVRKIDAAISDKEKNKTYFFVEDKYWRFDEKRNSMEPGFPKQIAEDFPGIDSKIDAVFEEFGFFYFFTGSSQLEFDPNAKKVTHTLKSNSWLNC
MMP-9, sequence (P14780 107-707 limits assumed): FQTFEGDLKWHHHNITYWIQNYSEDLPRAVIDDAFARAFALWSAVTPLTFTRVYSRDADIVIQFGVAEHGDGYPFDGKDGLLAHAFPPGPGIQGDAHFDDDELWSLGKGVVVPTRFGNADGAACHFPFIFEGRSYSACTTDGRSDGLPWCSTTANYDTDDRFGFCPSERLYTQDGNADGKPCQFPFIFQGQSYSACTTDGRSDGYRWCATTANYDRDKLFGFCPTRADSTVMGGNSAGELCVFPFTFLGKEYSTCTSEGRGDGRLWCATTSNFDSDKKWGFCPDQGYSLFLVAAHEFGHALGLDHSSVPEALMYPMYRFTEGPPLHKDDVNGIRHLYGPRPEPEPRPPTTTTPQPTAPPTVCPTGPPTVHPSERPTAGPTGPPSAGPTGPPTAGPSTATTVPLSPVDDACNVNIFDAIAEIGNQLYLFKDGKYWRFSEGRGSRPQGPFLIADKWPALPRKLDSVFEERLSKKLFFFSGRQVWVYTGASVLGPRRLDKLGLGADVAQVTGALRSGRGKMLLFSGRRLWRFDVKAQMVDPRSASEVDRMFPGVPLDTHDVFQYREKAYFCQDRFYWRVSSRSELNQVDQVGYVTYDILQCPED
MMP-8, sequence (P22894 101-467): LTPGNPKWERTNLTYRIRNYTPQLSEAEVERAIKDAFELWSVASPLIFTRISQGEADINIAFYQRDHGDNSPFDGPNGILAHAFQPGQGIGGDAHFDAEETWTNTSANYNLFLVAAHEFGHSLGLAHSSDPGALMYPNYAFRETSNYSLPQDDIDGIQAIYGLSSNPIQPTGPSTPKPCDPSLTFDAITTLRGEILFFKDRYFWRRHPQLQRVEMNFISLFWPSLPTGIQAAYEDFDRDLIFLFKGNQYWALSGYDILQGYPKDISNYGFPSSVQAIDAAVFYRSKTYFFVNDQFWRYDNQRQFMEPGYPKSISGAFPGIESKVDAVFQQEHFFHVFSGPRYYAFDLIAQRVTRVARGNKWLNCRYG

Compound: CC1(CS)Cn2c(nc3ccccc3c2=O)S1 (racemic) [(R,S)-2-mercaptomethyl-2-methyl-2,3-dihydro-thiazolo[2,3-b]quinazoline-5-one]
- inhibition (MMP-3) [1]: 60%

Compound: O=c1c2ccc(Cl)cc2nc2n1CC(CS)S2 (racemic) [(R,S)-8-chloro-2-mercaptomethyl-2,3-dihydro-thiazolo[2,3-b]quinazoline-5-one]
- inhibition at 10 µM [1]: 80%

Compound: CC(C)C[C@H](NC(=O)[C@H]1O[C@@H]1C(=O)O)C(=O)NCCCCN=C(N)N (relative stereo) [E-64, trans-epoxysuccinyl-L-leucylamido-(4-guanidino)butane]
- influence on GH cleavage by MMP-3 [2]: no influence

Compound: O=S1(=O)NC(NCCS)=Nc2ccccc21 [3-(2′-mercaptoethylamino)-2H-1,2,4-benzothiadiazine-1,1-dioxide]
- activation of MMP-3 [1]: about 20%

Compound: c1cnc2c(c1)ccc1cccnc12 [phenanthroline, 1,10-phenanthroline]
- GH cleavage by MMP-3 in the presence of inhibitor ([2]; 1 mM inhibitor, GH:MMP-3 50:1, 37° C. overnight, pH 7.5): not cleaved

Compound: Isovaleryl-VV[Sta]A[Sta] [pepstatin A]
- influence on GH cleavage by MMP-3 [2]: no influence

Compound: bFGF: human recombinant bFGF (BIOCHROM), positive control [reference compound]
- proliferation of HUVEC ([7]; 20 ng/ml): stimulates the proliferation

Now from value to compound, other results behind:

- inhibition at 4 µM ([1]; with 4.0 μM): 75%
Compound: O=c1[nH]c(=O)n(CC(S)CS)c2ccccc12 (racemic) [(R,S)-1-(2′,3′-dimercapto-prop-1′-yl)quinazoline-2,4(1H,3H)-dione]

- inhibition at 10 µM [1]: 50%
Compound: O=c1c2ccccc2nc2n1CC(CS)S2 (racemic) [(R,S)-2-mercaptomethyl-2,3-dihydro-thiazolo[2,3-b]quinazoline-5-one]

- activation of MMP-3 [1]: about 20%
Compound: Cn1c(=O)n(CCCS)c(=O)c2ccccc21 [3-(3-mercaptopropyl)-1-methyl-(1H,3H)quinazoline-2,4-dione]

- cleavage of GH by MMP-8 [4]: no degrading effect
- cleavage of GH by MMP-14 [5]: no degrading effect
- cleavage of GH by MMP-2 [6]: no, or only minor, degradative effects
Compound: GH: Human GH, 22 kDa peptide hormone composed of a single polypeptide chain (SIGMA S-4776)
- cleavage of GH by MMP-3 ([2]; molar ratio 50:1, 37° C. overnight, pH 7.5): cleaved by MMP-3 into two fragments of 16 kDa and 6 kDa; also recorded: cleaves GH into the typical 16 kDa fragment
- cleavage of GH by MMP-9 [3]: not possible to prove cleavage; also recorded: no degrading effect
- proliferation of HUVEC ([7]; 40 ng/ml): marked proliferative effect
